# Reference: US5599789A, “Method for the treatment of tumours and sarcomas” (Amrad Corporation Limited, priority 1991, dated 1997)
# Columns and labels:
# Format in all cases: cell-based, human
# [1] = tested on: Ewing's Sarcoma cell line Al-5; experiment: Colony formation in semi-solid agar cultures, Al-5 cells; details: Al-5, 1,000 cells, day 18
# Description: (§1) Tumour cells obtained from biopsy and bone marrow specimens from patients with Ewing's Sarcoma were used in these studies. Approval for this project has been obtained from the Ethics Committee of the Royal Children's Hospital.
# (§2) Single cell suspensions of tumour cells were obtained by mechanical disruption with an 18G or 21G needle or by pipetting, followed by incubation with dispase II (Boehringer) at a concentration of 1.2 units per ml for 10 minutes at 37° C. Prior to the addition to agar-medium the cells were vortexed gently to prevent clumping.
# (§3) Clonal cell lines were grown in Iscove's Modified Dulbecco's Medium (IMDM) supplemented with 10% v/v foetal calf serum (FCS; CSL Limited, Melbourne, Australia) and were passaged either weekly or twice weekly. The characteristics of the Ewing Sarcoma cell lines used herein as described below:
# (§4) Cell lines derived from the above primary cell lines (Al and Cu) are identified by an Arabic numeral (e.g. Al-1, Al-5, Al-8 or Cu-1).
# (§5) The tumour cells were immobilised in 0.3% w/v agar containing Iscove's Modified Dulbecco's Medium (IMDM) and 10% v/v FCS. […] Cultures were scored for the presence of colonies (>40 cells) or clusters (<40 cells). The number of cells plated per culture ranged from 500 to 10,000 per ml. Colonies were counted on an Olympus dissecting microscope.
# (§6) IL-1, IL-3, IL-4, IL-6, M-CSF, G-CSF, GM-CSF, Stem Cell Factor (SCF), TNFα, TGFα, TGFβ, EGF, aFGF, bFGF, NGF, IGF I, IGF II, PDGF and IFN-γ.
# (§7) The recombinant human leukaemia inhibitory factor (LIF) was obtained from AMRAD Corporation Limited, Melbourne, Australia.
# [2] = tested on: Ewing's Sarcoma cell line Cu-1; experiment: Colony formation in semi-solid agar cultures, Cu-1 cells; details: Cu-1, 10,000 cells, day 18
# Description: as §1, §2, §3, §4, §5, §6, §7
# [3] = tested on: Ewing's Sarcoma cell line Al-1; experiment: Colony formation in semi-solid agar cultures, Al-1 cells; details: day 18
# Description: as §1, §2, §3, §4, §5, §6, §7
# [4] = tested on: Ewing's Sarcoma cell line Al-8; experiment: Colony formation in semi-solid agar cultures, Al-8 cells; details: Al-8, 1,000 cells, day 18
# Description: as §1, §2, §3, §4, §5, §6, §7
# [5] = tested on: Ewing's Sarcoma cell line Al (uncloned); experiment: Colony formation in semi-solid agar cultures, Al (uncloned) cells; details: Al(uncloned), 5,000 cells, day 18
# Description: as §1, §2, §3, §5, §6, §7
# Ewing's Sarcoma cells = experiment: Colony formation in agar cultures, a number of different Ewing's cell lines (summary statements); details: doses of Tables 1-3; TNF-α dose far above the physiological dose
# Text: as §5
# [6] = stimulus 100 ng, mean of duplicate colony counts
# [7] = Al-1, 1,000 cells, stimulus 100 ng, mean of duplicate colony counts
# [8] = Al-1, 10,000 cells, stimulus 100 ng, mean of duplicate colony counts
substance,measurement,setting,value
"IL-4: commercially available growth factor, used at 1:3000",Colonies/Cultures,[1]; stimulus 1:3000,38
same,Colonies/Cultures,[2]; stimulus 1:3000,325
same,Colonies/Cultures,"[3]; Al-1, 1,000 cells, stimulus 1:3000",47
same,Colonies/Cultures,"[3]; Al-1, 10,000 cells, stimulus 1:3000",720
same,Colonies/Cultures,[4]; stimulus 1:3000,82
same,Colonies/Cultures,[5]; stimulus 1:3000,165
TGFb,Colonies/Cultures,[1]; stimulus 5 ng,41
same,Colonies/Cultures,[2]; stimulus 5 ng,385
same,Colonies/Cultures,"[3]; Al-1, 10,000 cells, stimulus 5 ng",540
same,Colonies/Cultures,[4]; stimulus 5 ng,45
same,Colonies/Cultures,[5]; stimulus 5 ng,175
aFGF: commercially available growth factor,Colonies/Cultures,[1]; [6],58
same,Colonies/Cultures,[2]; [6],520
same,Colonies/Cultures,[3]; [7],57
same,Colonies/Cultures,[3]; [8],975
same,Colonies/Cultures,[4]; [6],128
same,Colonies/Cultures,[5]; [6],260
NGF: commercially available growth factor,Colonies/Cultures,[1]; [6],32
same,Colonies/Cultures,[2]; [6],360
same,Colonies/Cultures,[3]; [7],49
same,Colonies/Cultures,[3]; [8],810
same,Colonies/Cultures,[4]; [6],52
same,Colonies/Cultures,[5]; [6],165
TNFa,Colonies/Cultures,[1]; stimulus 5 ug,0
same,Colonies/Cultures,[2]; stimulus 5 ug,190
same,Colonies/Cultures,"[3]; Al-1, 10,000 cells, stimulus 5 ug",2
same,Colonies/Cultures,[4]; stimulus 5 ug,1
same,Effect on colony counts of the other factors,Ewing's Sarcoma cells,with the exception of TNF-α showed any effect on colony counts
same,Colonies/Cultures,[5]; stimulus 5 ug,39
PDGF,Colonies/Cultures,[1]; stimulus 30 ng,39
same,Colonies/Cultures,[2]; stimulus 30 ng,390
same,Colonies/Cultures,"[3]; Al-1, 1,000 cells, stimulus 30 ng",47
same,Colonies/Cultures,[4]; stimulus 30 ng,72
same,Colonies/Cultures,[5]; stimulus 30 ng,352
TGFa: commercially available growth factor,Colonies/Cultures,[2]; stimulus 20 ng,390
same,Colonies/Cultures,[4]; stimulus 20 ng,87
same,Colonies/Cultures,[5]; stimulus 20 ng,190
"SCF: commercially available growth factor, Stem Cell Factor",Colonies/Cultures,[1]; [6],42
same,Colonies/Cultures,[2]; [6],440
same,Colonies/Cultures,[3]; [7],51
same,Colonies/Cultures,[3]; [8],950
same,Colonies/Cultures,[4]; [6],77
same,Colonies/Cultures,[5]; [6],225
